This passage reports mutagenic call results from PubChem BioAssay AID1259407 (Chemical Carcinogenesis Research Information System (CCRIS), 2018).

The source made the active and inactive calls. The rule behind the calls is not given here.

For this data set, the system named is CCRIS mutagenicity, Ames/micronucleus/aberration tests. Description: CCRIS mutagenicity studies.
[1] abbreviates: Test System: AMES SALMONELLA TYPHIMURIUM, Strain/Indicator: TA97, Metabolic Activation: HAMSTER, LIVER, S-9, AROCLOR 1254 (10 OR 30%), Method: PREINCUBATION
[2] abbreviates: Test System: AMES SALMONELLA TYPHIMURIUM, Strain/Indicator: TA97, Metabolic Activation: NONE, Method: PREINCUBATION
Setting [3] is: Test System: AMES SALMONELLA TYPHIMURIUM, Strain/Indicator: TA97, Metabolic Activation: RAT, LIVER, S-9, AROCLOR 1254 (10 OR 30%), Method: PREINCUBATION
Where [4] appears, read: Test System: AMES SALMONELLA TYPHIMURIUM, Strain/Indicator: TA98, Metabolic Activation: HAMSTER, LIVER, S-9, AROCLOR 1254 (10 OR 30%), Method: PREINCUBATION
The mark [5] stands for this setting: Test System: AMES SALMONELLA TYPHIMURIUM, Strain/Indicator: TA98, Metabolic Activation: NONE, Method: PREINCUBATION
[6] abbreviates: Test System: AMES SALMONELLA TYPHIMURIUM, Strain/Indicator: TA98, Metabolic Activation: RAT, LIVER, S-9, AROCLOR 1254 (10 OR 30%), Method: PREINCUBATION
Where [7] appears, read: Test System: AMES SALMONELLA TYPHIMURIUM, Strain/Indicator: TA100, Metabolic Activation: NONE, Method: PREINCUBATION
The mark [8] stands for this setting: Test System: AMES SALMONELLA TYPHIMURIUM, Strain/Indicator: TA1535, Metabolic Activation: HAMSTER, LIVER, S-9, AROCLOR 1254 (10 OR 30%), Method: PREINCUBATION
[9] abbreviates: Test System: AMES SALMONELLA TYPHIMURIUM, Strain/Indicator: TA1535, Metabolic Activation: NONE, Method: PREINCUBATION
The mark [10] stands for this setting: Test System: AMES SALMONELLA TYPHIMURIUM, Strain/Indicator: TA98, Metabolic Activation: NONE, Method: STANDARD PLATE.
Where [11] appears, read: Test System: AMES SALMONELLA TYPHIMURIUM, Strain/Indicator: TA100, Metabolic Activation: NONE, Method: STANDARD PLATE.

As to `Nc1ncn[nH]1`, the mutagenic call by setting is: under setting [1], “inactive; negative”; under setting [2], “inactive; negative”; under setting [3], “inactive; negative”; under setting [4], “inactive; negative”; under setting [5], “inactive; negative”; (Test System: AMES SALMONELLA TYPHIMURIUM, Strain/Indicator: TA98, Metabolic Activation: PROSTAGLANDIN H SYNTHASE, Method: PREINCUBATION) “inactive; negative”. In addition, the mutagenic call is, setting by setting: under setting [6], “inactive; negative”; (Test System: AMES SALMONELLA TYPHIMURIUM, Strain/Indicator: TA100, Metabolic Activation: HAMSTER, LIVER, S-9, AROCLOR 1254 (10 OR 30%), Method: PREINCUBATION) “inactive; negative”; under setting [7], “inactive; negative”; (Test System: AMES SALMONELLA TYPHIMURIUM, Strain/Indicator: TA100, Metabolic Activation: RAT, LIVER, S-9, AROCLOR 1254 (10 OR 30%), Method: PREINCUBATION) “inactive; negative”; under setting [8], “inactive; negative”; under setting [9], “inactive; negative”. The mutagenic call runs as follows: (Test System: AMES SALMONELLA TYPHIMURIUM, Strain/Indicator: TA1535, Metabolic Activation: RAT, LIVER, S-9, AROCLOR 1254 (5 OR 10%), Method: PREINCUBATION) “inactive; negative”; (Test System: AMES SALMONELLA TYPHIMURIUM, Strain/Indicator: TA1535, Metabolic Activation: RAT, LIVER, S-9, AROCLOR 1254 (30%), Method: PREINCUBATION) “inactive; negative”; (Test System: E. COLI, Strain/Indicator: WP2 UVRA, Metabolic Activation: HAMSTER, LIVER, S-9, AROCLOR 1254, Method: STANDARD PLATE) “inactive; negative”; (Test System: E. COLI, Strain/Indicator: WP2 UVRA, Metabolic Activation: HAMSTER, LIVER, S-9, Method: STANDARD PLATE) “inactive; negative”; (Test System: E. COLI, Strain/Indicator: WP2 UVRA, Metabolic Activation: MOUSE, LIVER, S-9, AROCLOR 1254, Method: STANDARD PLATE) “inactive; negative”; (Test System: E. COLI, Strain/Indicator: WP2 UVRA, Metabolic Activation: MOUSE, LIVER, S-9, Method: STANDARD PLATE) “inactive; negative”. Also, the mutagenic call is “inactive; negative” (Test System: E. COLI, Strain/Indicator: WP2 UVRA, Metabolic Activation: NONE, Method: STANDARD PLATE); “inactive; negative” (Test System: E. COLI, Strain/Indicator: WP2 UVRA, Metabolic Activation: RAT, LIVER, S-9, AROCLOR 1254, Method: STANDARD PLATE); “inactive; negative” (Test System: E. COLI, Strain/Indicator: WP2 UVRA, Metabolic Activation: RAT, LIVER, S-9, Method: STANDARD PLATE); “inactive; negative” (Test System: MOUSE LYMPHOMA, Strain/Indicator: L5178Y (TK+/TK-), Metabolic Activation: NONE, Method: SUSPENSION/PLATE); “inactive; negative” (Test System: MOUSE LYMPHOMA, Strain/Indicator: L5178Y (TK+/TK-), Metabolic Activation: RAT, LIVER, S-9, AROCLOR 1254, Method: SUSPENSION/PLATE); “inactive; negative” (Test System: MOUSE LYMPHOMA, Strain/Indicator: L5178Y (TK+/TK-), Metabolic Activation: RAT, LIVER, S-9, Method: SUSPENSION/PLATE).
Consider `CC(C)CCC[C@@H](C)[C@H]1CC[C@H]2[C@@H]3C=CC4(OO)C[C@@H](O)CC[C@]4(C)[C@H]3CC[C@]12C` (some centres undefined), for which the mutagenic call (Test System: AMES SALMONELLA TYPHIMURIUM, Strain/Indicator: TA1537, Metabolic Activation: NONE, Method: PREINCUBATION) was “active; positive”.
Turning to `Cc1ccc2cc3c4c(ccc3c3c2c1C[C@H]3O)[C@@H](O)[C@H](O)C=C4`, the mutagenic call (Test System: CHINESE HAMSTER V-79, Strain/Indicator: V-79/8-AZAGUANINE, Metabolic Activation: RAT, LIVER, S-9, AROCLOR, Method: STANDARD PLATE) is “active; positive”.
As to `C=C1C/C(=C/C)C(=O)O[C@@H]2CCN3CC=C(COC(=O)[C@@]1(O)CO)[C@H]23`, the mutagenic call reads like this: (End Point: IN VITRO CHROMOSOMAL ABERRATIONS, Test System: CHINESE HAMSTER OVARY CELLS, Metabolic Activation: NONE) “inactive; negative”; (End Point: IN VITRO CHROMOSOMAL ABERRATIONS, Test System: CHINESE HAMSTER OVARY CELLS, Metabolic Activation: RAT, LIVER, S-9, AROCLOR 1254) “active; positive; very high frequencies of aberrations were induced in the 25 cells coun”; under setting [1], “inactive; negative”; under setting [2], “inactive; negative”; under setting [3], “inactive; negative”; under setting [4], “inactive; negative”. The mutagenic call is “inactive; negative” under setting [5]; “inactive; negative” under setting [6]; “inactive; negative” (Test System: AMES SALMONELLA TYPHIMURIUM, Strain/Indicator: TA100, Metabolic Activation: HAMSTER, LIVER, S-9, AROCLOR 1254 (10%), Method: PREINCUBATION); “active; positive” (Test System: AMES SALMONELLA TYPHIMURIUM, Strain/Indicator: TA100, Metabolic Activation: HAMSTER, LIVER, S-9, AROCLOR 1254 (30%), Method: PREINCUBATION); “inactive; negative” under setting [7]; “inactive; negative” (Test System: AMES SALMONELLA TYPHIMURIUM, Strain/Indicator: TA100, Metabolic Activation: RAT, LIVER, S-9, AROCLOR 1254 (10%), Method: PREINCUBATION). Further, the mutagenic call reads like this: (Test System: AMES SALMONELLA TYPHIMURIUM, Strain/Indicator: TA100, Metabolic Activation: RAT, LIVER, S-9, AROCLOR 1254 (30%), Method: PREINCUBATION) “active; positive”; under setting [8], “inactive; negative”; under setting [9], “inactive; negative”; (Test System: AMES SALMONELLA TYPHIMURIUM, Strain/Indicator: TA1535, Metabolic Activation: RAT, LIVER, S-9, AROCLOR 1254 (10 OR 30%), Method: PREINCUBATION) “inactive; negative”.
On to `Cc1ccccc1N=Nc1ccc(N=Nc2c(O)ccc3ccccc23)c(C)c1`, for which the mutagenic call reads like this: (Test System: AMES SALMONELLA TYPHIMURIUM, Strain/Indicator: TA98, Metabolic Activation: HAMSTER, LIVER, S-9, Method: PREINCUBATION (PRIVAL METHOD)) “active; positive”; under setting [10], “inactive; negative”; under setting [11], “inactive; negative”.
For the compound `Cn1c(N)nc2cc(Cl)ccc21`, the mutagenic call runs as follows: (Test System: AMES SALMONELLA TYPHIMURIUM, Strain/Indicator: TA98, Metabolic Activation: RAT, LIVER, S-9, AROCLOR 1254, Method: PREINCUBATION) “active; positive”; (Test System: AMES SALMONELLA TYPHIMURIUM, Strain/Indicator: TA100, Metabolic Activation: RAT, LIVER, S-9, AROCLOR 1254, Method: PREINCUBATION) “active; positive”.
For `CC(=O)Nc1ccc(Cc2ccc(NC(C)=O)c(Cl)c2)cc1Cl`, the mutagenic call runs as follows: under setting [7], “inactive; negative”; (Test System: AMES SALMONELLA TYPHIMURIUM, Strain/Indicator: TA100, Metabolic Activation: RAT, LIVER, S-9, AROCLOR 1254 (50 µL), Method: PREINCUBATION) “inactive; negative”; (Test System: AMES SALMONELLA TYPHIMURIUM, Strain/Indicator: TA100, Metabolic Activation: RAT, LIVER, S-9, AROCLOR 1254 (100 OR 200 µL), Method: PREINCUBATION) “active; positive”.
Take `O=[N+]([O-])c1ccc2ccc3c4c(cc5ccc1c2c53)CCCC4`: the mutagenic call is, setting by setting: under setting [10], “active; positive”; under setting [11], “inactive; negative”.
For `COc1ccc([N+](=O)[O-])ccc1=O`, the mutagenic call (Test System: AMES SALMONELLA TYPHIMURIUM, Strain/Indicator: TA98, Metabolic Activation: RAT, LIVER, S-9, KC500 OR PHENOBARBITAL, Method: LIQUID SUSPENSION) is “active; positive” and the mutagenic call (Test System: AMES SALMONELLA TYPHIMURIUM, Strain/Indicator: TA100, Metabolic Activation: RAT, LIVER, S-9, KC500 OR PHENOBARBITAL, Method: LIQUID SUSPENSION) is “active; positive”.
